One data set deals with cells. Particulars: CD-1, mouse. The procedure:
Bioavailability of IPTG: Three CD-1 adult mice were gavaged with 25 μL of 1M IPTG per 10 g of body weight twice a day for 3 days. Animals were then sacrificed and major organs were harvested, mechanically homogenized, and steady state concentrations of IPTG in liver, kidney, skeletal muscle, and retina were determined using a beta-galacosidase assay^24. […] IPTG concentrations were tracked in various mouse tissues after a single 3-day IPTG gavage induction cycle. Data points represent mean+/−SD, n=3.

The subject of a further data set is ARPE-19 cells. The experiment in a line: Luciferase regulation assay in transfected ARPE-19 cells with and without IPTG. In kind it is cell-based, human. The procedure: All gene regulation assays start by transiently transfecting the cell line of choice with the appropriate plasmid. Media is supplemented with effector of varying concentration in wells (IPTG for lacI repressor experiments and doxycycline for tet repressor experiments) and specific experimental conditions are typically grown side by side in triplicate. Experimental measurement times varied depending upon cell confluence but occurred 24 to 72 hours after transfection.
Cells were lysed with Reporter Lysis Buffer (Promega) and 5 μL of whole cell lysate was added to 45 μL of luciferase assay buffer (Promega) containing luciferin in 384 well optical bottom plates (Corning). Plates were immediately loaded into the Tecan M1000 and luciferase signal was measured for each well over time. Peak luciferase signal values were used for quantification. […]
The plasmid containing the cassette controlling luciferase was transfected into human retinal pigment epithelium (ARPE-19) cells and grown with and without 2.5 mM IPTG. We measured approximately 20% basal expression with a 3.5-fold induction (p<0.05) (FIG. 1D). […]
Point mutations introduced in the repressor can decrease leakiness, increase dynamic range, or change/alter the affinity for effector molecules in bacterial cells. […] These point mutations were introduced into the repressor and induction measured in ARPE-19 cells. […]

Entries after “also recorded” stand apart in the source; their conditions may differ.

As to `CC(C)SC1OC(CO)C(O)C(O)C1O` [IPTG, isopropyl β-D-1-thiogalactopyranoside], in the data set with cells, the “gavage concentration of IPTG, fold less than concentrations toxic to cells” value stood at 50 fold. For the same molecule, the “steady state tissue concentrations of IPTG, fold less than concentrations toxic to cells” value in the data set on cells (3 days) is 500 fold.

B1: Q18M: lacI repressor point mutant in the DNA binding domain, residue 18 Q to M (protein, listed as Escherichia coli)
chain: MKPVTLYDVAEYAGVSYMTVSRVVNQASHVSAKTREKVEAAMAELNYIPNRVAQQLAGKQSLLIGVATSSLALHAPSQIVAAIKSRADQLGASVVVSMVERSGVEACKAAVHNLLAQRVSGLIINYPLDDQDAIAVEAACTNVPALFLDVSDQTPINSIIFSHEDGTRLGVEHLVALGHQQIALLAGPLSSVSARLRLAGWHKYLTRNQIQPIAEREGDWSAMSGFQQTMQMLNEGIVPTAMLVANDQMALGAMRAITESGLRVGADISVVGYDDTEDSSCYIPPLTTIKQDFRLLGQTSVDRLLQLSQGQAVKGNQLLPVSLVKRKTTLAPNTQTASPRALADSLMQLARQVSRLESGQ
On to B1, for which the “leakiness, dynamic range and maximal expression phenotype (in words)” value in the data set with ARPE-19 cells is on record as “deceased leakiness at the expense of maximal expression; also recorded: decreased leakiness as well as the commensurate decreased dynamic range”.

B2: F161W: lacI repressor effector pocket point mutant, residue 161 F to W (protein, UniProt P03023 1-360, looked up, variant F161W)
Lactose operon repressor: MKPVTLYDVAEYAGVSYQTVSRVVNQASHVSAKTREKVEAAMAELNYIPNRVAQQLAGKQSLLIGVATSSLALHAPSQIVAAIKSRADQLGASVVVSMVERSGVEACKAAVHNLLAQRVSGLIINYPLDDQDAIAVEAACTNVPALFLDVSDQTPINSIIWSHEDGTRLGVEHLVALGHQQIALLAGPLSSVSARLRLAGWHKYLTRNQIQPIAEREGDWSAMSGFQQTMQMLNEGIVPTAMLVANDQMALGAMRAITESGLRVGADISVVGYDDTEDSSCYIPPLTTIKQDFRLLGQTSVDRLLQLSQGQAVKGNQLLPVSLVKRKTTLAPNTQTASPRALADSLMQLARQVSRLESGQ
As to B2, the “leakiness, dynamic range and maximal expression phenotype (in words)” value in the data set with ARPE-19 cells is “decreased leakiness and increased dynamic range”.
